The target in test [1] is T1, hDGKzeta(1-928)-N-His (DGKZ) (Homo sapiens, UniProt Q13574).
T1 construct: hDGKzeta(1-928)-N-His; His (N)
The experiment in a line: In vitro DGK inhibition assay (ADP-Glo, in house), DGK zeta. It counts as biochemical. Conditions: isomer A; 2 nM DGK ζ, 50 μM ATP, 125 μM DLG in liposomes, 1 hour reaction; read-out: DGKzeta ADP Glo assay IC50. How it is done: DGK α and ζ kinase use ATP to phosphorylate the substrate 1,2-dilauroyl-sn-glycerol (DLG, incorporated in the liposomes). ATP is converted to ADP as a result of this enzymatic reaction.
After the kinase reaction, an ATP-depletion reagent is added to terminate the kinase reaction and deplete any remaining ATP, leaving only ADP. Second, a detection reagent is added to simultaneously convert ADP to ATP and allow the newly synthesized ATP to be converted to light using a coupled luciferase/luciferin reaction.
Full length DGKA and Z were expressed in Sf21 insect cells by infecting the cells with the baculovirus stock at MOI of 2. Purification of both enzymes was performed as previously described by Takahashi et al., PeerJ, 2018 (Takahashi, D.; Sakane, F. Expression and purification of human diacylglycerolkinase alpha from baculovirus-infected insect cells for structural studies. PeerJ2018, 6, No. e5449).
A concentrated liposome solution was prepared in assay buffer without DTT and BSA: 2 mM of DLG in 21 mM of total liposome (2 mM DLG/8 mM PS/11 mM PC). The reaction mixtures contain the assay buffer with a final DLG concentration of 125 μM ATP concentrations of 25 μM (for DGKA assay) or 50 μM (for DGKZ assay). The reactions were started by addition of DGK α and ζ kinases at 4 nM and 2 nM final concentrations, respectively. After 1 hour reaction, the amount of ADP formed was detected with the ADP-Glo kinase assay (Promega) according to the manufacturer instructions. Compounds were added in 11I-points dose response, starting at 10 mM, 1:3 dilutions, with a final DMSO concentration of […]. The multidrop combi was used as a liquid handler and luminescence was read with 0.5 s by the envision reader (PE).

The next test concerns primary human T-cells. As to the kind of experiment: T-cell proliferation assay (CellTiter-Glo). The format is cell-based. Conditions: Homo sapiens, T-cell, 120 h, isomer A; for EC50: CD3 antibody-stimulated T-cells, CellTiter-Glo after 5 days, read-out: Tcell Proliferation CD3 EC50; for Emax: CD3 condition, 5 days, 20 μM reference compound A1 = 100%, DMSO neutral control, read-out: Emax proliferation (% activation). How it is done:
Expanded primary human T-cells are thawed and cultured in RPMI 1640 (Gibco, #61870-010)+5% human serum (HS, Sigma, #H3667)+1 mM Sodium Pyruvate (Gibco, #11360-039)+50 μM 2-mercaptoethanol (Gibco, #31350-010) and 1× Pen-Strep (Life Technologies, #15140122) medium at density of 2 Mio/ml for 3 hours in 5% CO2, 37° C. and 95% humidity. For coating of plates, PBS++ only or PBS++ with CD3 antibody (concentration depending on donor and determined by CD3 titrations) is added 100 μl/well to Poly-D Lysine coated 96-well plates. Plates are sealed and incubated at room temperature for 3 hours on a table-top rocking platform. After incubation, plates are washed once with PBS−− and filled with 40 μl/well culture medium only. Compounds are then added (see next section) to medium only plates. After 3 hours of culturing the T-cells, cells are filtered through a cell strainer (Miltenyi Biotech, #130-041-407), counted again and concentration is adjusted to 1.25 Mio/ml.
Cells are then seeded 80 μl/well to the 40 μl/well including dispensed compounds according to plate layout. By adding cells, compounds are further diluted 1:3, and resulting in 100k cells/120 μl/well. After 48 hours 40 μl of supernatant is collected carefully from the top while not disturbing the cells. Cells are assessed for proliferation 5 days later by measuring […] using CellTiterGlo (Promega).
Compounds were added in a 5 or 6 pt dose response with the Tecan D300e Digital Dispenser, all conditions 3 times more concentrated than the end-concentration, since cells are added afterwards (80 μl cells to 40 μl prepared medium with treatment). The DR was starting at 20 μM or 10 μM final top concentration and a dilution factor of 3.333. The positive control was the reference compound A1 that was added in a dose response as well, additionally to 3 wells of only 20 μM representing the positive stimulator control. All wells were normalized with DMSO to a final concentration of 0.6% (0.2% end-concentration).
After 5 days, for detection of ATP which is directly proportional to the number of cells present per well, the CellTiter-Glo® 2.0 Reagent is used. After visual control for toxicity or precipitations of the tested compounds, the plates are equilibrated to room temperature for 45 minutes. CellTiter-Glo® 2.0 Reagent is equilibrated to room temperature as well. After equilibration, an equal amount of CellTiter-Glo reagent is added to the cells (80 μl/well) with an electronic multichannel pipette. Plates are placed on a rocking platform for 15 minutes at room temperature. After incubation, the bottom of the plates is sealed with backing tape. Luminescence is measured with PHERAstar FSX (interval time 0.5 sec, gain 3000, focal height 15 mm) and exported as CSV file for analysis in Genedata screener.
CD3 and PBS plates were analysed separately in Genedata Screener using Roche Normalization PCT_POS_CTRL with DMSO set as Neutral Control and 20 μM of the reference compound A1 set as Stimulator Control/100%.
For CD3 conditions EC50 and Emax of the fitted sigmoidal curve were reported. If no curve could be fitted, the EC50 was reported as blank field and the Emax was based on individual data points. […] Compounds which activate unstimulated cells (see IL2 measurements) or compounds which negatively affected viability were flagged.
For orientation: In ATP-based viability assays light output follows the ATP content of the culture.

T1 sequence (Q13574 whole entry): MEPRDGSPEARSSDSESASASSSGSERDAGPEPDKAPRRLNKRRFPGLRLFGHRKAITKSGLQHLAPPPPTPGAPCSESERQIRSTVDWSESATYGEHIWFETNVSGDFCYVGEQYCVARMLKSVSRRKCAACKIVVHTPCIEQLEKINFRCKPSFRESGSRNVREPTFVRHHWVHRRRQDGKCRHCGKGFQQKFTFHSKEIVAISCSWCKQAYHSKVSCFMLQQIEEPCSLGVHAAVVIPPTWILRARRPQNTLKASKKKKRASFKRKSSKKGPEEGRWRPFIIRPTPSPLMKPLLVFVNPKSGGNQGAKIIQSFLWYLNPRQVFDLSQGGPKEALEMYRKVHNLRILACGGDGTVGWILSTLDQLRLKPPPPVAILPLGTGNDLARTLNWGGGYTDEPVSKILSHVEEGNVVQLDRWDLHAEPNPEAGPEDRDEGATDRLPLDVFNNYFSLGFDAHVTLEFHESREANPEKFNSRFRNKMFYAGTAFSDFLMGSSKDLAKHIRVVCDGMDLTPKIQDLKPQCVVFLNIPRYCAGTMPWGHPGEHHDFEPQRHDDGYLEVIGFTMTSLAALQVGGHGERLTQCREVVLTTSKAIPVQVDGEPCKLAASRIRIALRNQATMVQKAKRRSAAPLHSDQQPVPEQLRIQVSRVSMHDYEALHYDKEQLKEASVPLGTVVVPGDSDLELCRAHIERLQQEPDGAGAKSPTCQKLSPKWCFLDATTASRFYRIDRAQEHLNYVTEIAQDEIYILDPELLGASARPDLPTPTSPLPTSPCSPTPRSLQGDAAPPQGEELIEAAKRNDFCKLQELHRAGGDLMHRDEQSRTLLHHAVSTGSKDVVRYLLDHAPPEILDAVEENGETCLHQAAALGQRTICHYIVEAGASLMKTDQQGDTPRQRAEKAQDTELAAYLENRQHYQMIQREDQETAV

On to `COC(F)(c1nnc(-c2cc3c(cc2F)C(F)(F)C[C@H](N)C(=O)N3Cc2ccc(OC(F)(F)F)cc2)o1)C(F)(F)F` (single isomer, unassigned) [Example 4], for which the IC50 in test [1] turned out to be 8930 nM. In addition, in the test with primary human T-cells, the EC50 stood at 140 nM and the Emax worked out at 112%.
For `CC(C)(c1nnc(-c2cc3c(cc2F)C(F)(F)C[C@@H](N)C(=O)N3Cc2ccc(-c3ccc(C(F)(F)F)cn3)cc2)o1)S(C)(=O)=O` (single isomer, unassigned) [Example 8], in that order: 16100 nM, 185 nM and 86%.
Taken in the same sequence, the figures for `CCN1CC(c2nnc(-c3cc4c(cc3F)C(F)(F)C[C@@H](N)C(=O)N4Cc3ccc(OC(F)(F)F)cc3)o2)CC(F)(F)C1` (single isomer, unassigned) [Example 13] were 2260 nM, 77.7 nM and 79%.
For `N[C@@H]1CC(F)(F)c2cc(F)c(-c3nnc(N4CCCC4)o3)cc2N(Cc2ccc(-c3noc(C(F)(F)F)n3)cc2)C1=O` (single isomer, unassigned) [Example 14], in that order: 17900 nM, 593 nM and 149%.
For the compound `N[C@@H]1CC(F)(F)c2cc(F)c(-c3nnc(N4CCC(F)(F)CC4)o3)cc2N(Cc2ccc(-c3noc(C(F)(F)F)n3)cc2)C1=O` (single isomer, unassigned) [Example 15], the IC50 in test [1] was 1810 nM. Further, in the test with primary human T-cells, the EC50 is 127 nM and the Emax turned out to be 108%.
For `CC(C)(c1nnc(-c2cc3c(cc2F)C(F)(F)C[C@@H](N)C(=O)N3Cc2ccc(-c3noc(C(F)(F)F)n3)cc2)o1)S(C)(=O)=O` (single isomer, unassigned) [Example 16], in that order: 14900 nM, 296 nM and 241%.
Taken in the same sequence, the figures for `N[C@@H]1CC(F)(F)c2cc(F)c(-c3nnc(N4CCOC5(CC5)C4)o3)cc2N(Cc2ccc(-c3noc(C(F)(F)F)n3)cc2)C1=O` (single isomer, unassigned) [Example 17] were 3250 nM, 558 nM and 115%.
Taken in the same sequence, the figures for `CC(C)(C#N)c1nnc(-c2cc3c(cc2F)C(F)(F)C[C@@H](N)C(=O)N3Cc2ccc(-c3ncc(C(F)(F)F)cc3F)cc2)o1` (single isomer, unassigned) [Example 19] were 7240 nM, 984 nM and 85%.
Take `CC(C)(C#N)c1nnc(-c2cc3c(cc2F)C(F)(F)C[C@@H](N)C(=O)N3Cc2ccc(-n3nnc(C(F)(F)F)n3)cc2)o1` (single isomer, unassigned) [Example 20]: the IC50 in test [1] was 2140 nM. For the same compound, in the test on primary human T-cells, the EC50 was found to be 205 nM and the Emax was 118%.
Taken in the same sequence, the figures for `N[C@@H]1CC(F)(F)c2cc(F)c(-c3nnc(N4CCCC4)o3)cc2N(Cc2ccc(-n3cnc(C(F)(F)F)n3)cc2)C1=O` (single isomer, unassigned) [Example 21] were 11800 nM, above 10000 nM and 43%.
Consider `N[C@@H]1CC(F)(F)c2cc(F)c(-c3nnc(N4CCC(F)(F)C4)o3)cc2N(Cc2ccc(-n3cnc(C(F)(F)F)n3)cc2)C1=O` (single isomer, unassigned) [Example 22], for which the IC50 in test [1] worked out at 17800 nM. In the test with primary human T-cells, the EC50 came to 2110 nM and the Emax turned out to be 62%.
For `CC(C)(c1nnc(-c2cc3c(cc2F)C(F)(F)C[C@@H](N)C(=O)N3Cc2ccc(-n3cnc(C(F)(F)F)n3)cc2)o1)S(C)(=O)=O` (single isomer, unassigned) [Example 23], in that order: 15400 nM, above 10000 nM and 98%.
For `CC(C)(C#N)c1nnc(-c2cc3c(cc2F)C(F)(F)C[C@@H](N)C(=O)N3Cc2ccc(-c3ccc(OC(F)(F)F)cn3)cc2)o1` (single isomer, unassigned) [Example 24], in that order: 2400 nM, 161 nM and 129%.
`CC(C)(c1nnc(-c2cc3c(cc2F)C(F)(F)C[C@@H](N)C(=O)N3Cc2ccc(-c3ccc(OC(F)(F)F)cn3)cc2)o1)S(C)(=O)=O` (single isomer, unassigned) [Example 26]: the IC50 in test [1] is 8820 nM. Also, in the test with primary human T-cells, the EC50 worked out at 950 nM and the Emax was 155%.
For `CC(C)(C#N)c1nnc(-c2cc3c(cc2F)C(F)(F)C[C@@H](N)C(=O)N3Cc2ccc(-c3cc(C(F)(F)F)ccn3)cc2)o1` (single isomer, unassigned) [Example 27], the IC50 in test [1] turned out to be 1820 nM. Also, in the test with primary human T-cells, the EC50 was found to be 598 nM and the Emax was 79%.
Taken in the same sequence, the figures for `CC(C)(C#N)c1nnc(-c2cc3c(cc2F)C(F)(F)C[C@@H](N)C(=O)N3Cc2ccc(-c3ccc(C(F)(F)F)cc3)nc2)o1` (single isomer, unassigned) [Example 28] were 11200 nM, 978 nM and 96%.
With `CC(C)(c1nnc(-c2cc3c(cc2F)C(F)(F)C[C@@H](N)C(=O)N3Cc2ccc(-n3cc(C(F)(F)F)cn3)cc2)o1)S(C)(=O)=O` (single isomer, unassigned) [Example 29], in test [1], the IC50 stood at 13900 nM. In addition, in the test on primary human T-cells, the EC50 is 91.7 nM and the Emax is 93%.
Taken in the same sequence, the figures for `CC(C)(C#N)c1nnc(-c2cc3c(cc2F)C(F)(F)C[C@@H](N)C(=O)N3Cc2ccc(-n3ccc(C(F)(F)F)n3)cc2)o1` (single isomer, unassigned) [Example 30] were 10200 nM, 589 nM and 94%.
For `CC(C)(c1nnc(-c2cc3c(cc2F)C(F)(F)C[C@@H](N)C(=O)N3Cc2ccc(-c3ccc(C(F)(F)F)cc3)cc2)o1)S(C)(=O)=O` (single isomer, unassigned) [Example 32], in that order: 33800 nM, 2340 nM and 81%.
In the case of `COCCN1CC(c2nnc(-c3cc4c(cc3F)C(F)(F)C[C@@H](N)C(=O)N4Cc3ccc(-c4ccc(C(F)(F)F)cn4)cc3)o2)CC(F)(F)C1` (single isomer, unassigned) [Example 34], the IC50 in test [1] turned out to be 11100 nM. In the test with primary human T-cells, the EC50 is 1220 nM and the Emax worked out at 75%.
For `COC(=O)N1CC2CC(c3nnc(-c4cc5c(cc4F)C(F)(F)C[C@@H](N)C(=O)N5Cc4ccc(-c5ccc(C(F)(F)F)cn5)cc4)o3)(C2)C1` (single isomer, unassigned) [Example 35], in that order: above 19000 nM, 124 nM and 128%.

A word on the IC50: it is the concentration that gives 50% inhibition.

Source of the values: patent publication US20250236614A1, “BICYCLIC TETRAHYDROAZEPINE DERIVATIVES” (Hoffmann-La Roche Inc., priority 2022, published 2025).
